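Growth conditions: 96-well plates. Treatment: test compound, 48 hours, 5 concentrations. Analysis: linear interpolation between bracketing concentrations; unreached endpoints set to highest concentration. GI50 marks 50% less growth.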 Activity calls are given as the source filed them. No stated cut-off is given here; in the data, active = GI50 up to about 1.1 µM and inactive = higher. Starred links: 1 amine or outer side, 2 acyl side, 3 side chain; linkers in the order of their positions; H or OH if unused. Positions of bridges follow the written chain, without caps; N, C: chain ends. Non-standard residues stand in square brackets, D forms with d. Residues, ends and D or L forms follow the SMILES beside them. Chains are numbered I, II in the order given. *: point of attachment. Actinocin(9to1) = Cc1c2oc3c(C)ccc(C(=O)[*:1])c3nc-2c(C(=O)[*:2])c(N)c1=O; NMeV = CN[CH](C(=O)O)C(C)C; Ac5c = NC1(C(=O)O)CCCC1; Cbz = O=C(OCc1ccccc1)*; Boc = CC(C)(C)OC(=O)*; Sar = CNCC(=O)O; tBu = CC(C)(C)*

Experimental findings from ChEMBL document CHEMBL1201862, “PubChem BioAssay data set” (2004) are described below.

Common to all, as to experiment: growth of human tumour cells (NCI), 48 h
Assay [1] concerns BT-549.
The test system of assay [2] is MDA-MB-231.
Assay [3] concerns MDA-N.
For assay [4], the system named is T47D.

Consider `COc1cc(/C=C(\C#N)c2nc3ccccc3o2)ccc1O`, for which the GI50 in assay [1] was 16.1 µM (inactive); in assay [2] it was 21.8 µM (inactive); in assay [3], 23 µM (inactive); in assay [4] it was 13.3 µM (inactive).
With `Cc1ccc(S(=O)(=O)N2CCCN(S(=O)(=O)c3ccc(C)cc3)CC2)cc1`, the GI50 in assay [2], in assay [3] and in assay [4] was > 100 µM (inactive) each time.
`COc1ccc2cc(C(=O)NCCCNC(=O)c3ccc4c(OC)c(OC)ccc4c3)ccc2c1OC`: the GI50 in assay [2], in assay [3] and in assay [4] was > 100 µM (inactive) each time.
For `CCc1nc2cc3cccnc3c(Cl)c2[nH]c1=O`, the GI50 in assay [1] is 65.9 µM (inactive); in assay [2] it was > 100 µM (inactive); in assay [3] it was > 100 µM (inactive); in assay [4], 63.4 µM (inactive).
`N#Cc1c(N)sc2c1-c1ccccc1OC2`: the GI50 in assay [1] was 41 µM (inactive); in assay [2] it was 46.9 µM (inactive); in assay [3] it was 21.1 µM (inactive).
Turning to `CN1C(C)(C)CC(=O)C(Br)C1(C)C` (configuration not stated), the GI50 in assay [1], in assay [3] and in assay [4] was > 100 µM (inactive) throughout.
Take `CCN(CC)C(=O)CCN1CC1`: the GI50 in assay [1], in assay [2], in assay [3] and in assay [4] was > 10 µM (inactive) each time.
`O=C1c2ccccc2CC12Cc1cc3c(cc1C2)CCC3`: the GI50 was > 100 µM (inactive) in assay [2], 37.5 µM (inactive) in assay [3] and > 100 µM (inactive) in assay [4].
`COC(O)C(=O)c1c2c(cc3c1CCC3)CCCC2` (configuration not stated): the GI50 in assay [1] is 2.39 µM (inactive); in assay [2] it was 9.64 µM (inactive); in assay [3] it was 13 µM (inactive); in assay [4] it was 6.28 µM (inactive).
Consider `Cc1nc2ccccc2n1Cc1nnc2n1N=C(c1ccccc1)CS2`, for which the GI50 in assay [1] is 32.1 µM (inactive); in assay [2], 20.6 µM (inactive); in assay [3], 32.3 µM (inactive); in assay [4] it was 10.6 µM (inactive).
Consider `NC12Oc3cc(O)cc(O)c3C1(c1ccc(Cl)cc1)c1c(O)cc(O)cc1O2` (configuration not stated), for which the figures for the GI50 in assay [1], in assay [3] and in assay [4] were > 100 µM (inactive), 39.9 µM (inactive) and > 100 µM (inactive), respectively.
As for `COc1ccc2nc3c([N+](=O)[O-])ccc4c3c(c2c1)N=CN4CCCN(C)C`, the GI50 is 8.22 µM (inactive) in assay [1], 1.37 µM (inactive) in assay [2], 4.62 µM (inactive) in assay [3] and 11.5 µM (inactive) in assay [4].
In the case of `Oc1cc(Cl)cc2cccnc12`, the GI50 is 3.89 µM (inactive) in assay [1], 2.19 µM (inactive) in assay [2], 17.9 µM (inactive) in assay [3] and 2.25 µM (inactive) in assay [4].
For `N#Cc1c(-c2ccc(Cl)cc2)cc(-c2nc3ccccc3[nH]2)nc1N`, the GI50 in assay [1] is 14.4 µM (inactive); in assay [2], 12.2 µM (inactive); in assay [3] it was 6.49 µM (inactive); in assay [4] it was 3.12 µM (inactive).
For the compound `O=c1[nH]c(=S)[nH]n1C(=S)n1[nH]c(=S)[nH]c1=O`, the GI50 in assay [2], in assay [3] and in assay [4] was > 100 µM (inactive) throughout.
`Cc1nc2[nH]ncn2c(=O)c1CCCl`: the GI50 in assay [2], in assay [3] and in assay [4] was > 10 µM (inactive) in each case.
As for `COc1ccc(C2C=C(c3ccc(C)cc3)N(c3ccc(OC)cc3[N+](=O)[O-])C3C(=O)OC(=O)C23)c(OC)c1` (configuration not stated), the GI50 in assay [1] was 53.3 µM (inactive); in assay [2], 53.2 µM (inactive).
For `COc1cc([N+](=O)[O-])ccc1NC1=CC(=O)CCC1`, the GI50 in assay [1], in assay [2], in assay [3] and in assay [4] was > 100 µM (inactive) throughout.
Turning to `Cc1cc(C)n(C(=O)C(C)Sc2nnc(SC(C)C(=O)n3nc(C)cc3C)s2)n1` (configuration not stated), the GI50 in assay [1], in assay [2] and in assay [3] was > 100 µM (inactive) in each case.
On to `O=C(NC1C(=O)NC(CCc2ccccc2)NC1=O)OCc1ccccc1` (configuration not stated), for which the GI50 in assay [2] and in assay [4] was > 100 µM (inactive) in each case.
With `CN1CCN(c2ccc3c(c2)NCC(=O)N3)CC1`, the GI50 in assay [1], in assay [2] and in assay [4] was > 100 µM (inactive) each time.
For `C=C1C(=O)O[C@H]2C/C(C=O)=C\[C@H]3O[C@H]3/C(COC(=O)C(C)C)=C/CC12` (some centres not stated), the GI50 in assay [1] was 12.2 µM (inactive); in assay [2] it was 3.89 µM (inactive); in assay [3] it was 2.91 µM (inactive); in assay [4], 3.54 µM (inactive).
In the case of `COc1c(C(=O)/C(=N/Nc2cccc(Cl)c2)C(C)=O)c(O)c(OC)c2occc12`, the GI50 in assay [2] was 73.6 µM (inactive); in assay [3], > 100 µM (inactive); in assay [4] it was 50.8 µM (inactive).
Take `COCC1OC(OC2C3=C(C(C)C)CCC3(C)/C=C3\C(CCC3(O)COC)C(C)C2O)C(O)C2OC3OC12OC3(C)C1CO1` (configuration not stated): the GI50 is 16.6 µM (inactive) in assay [1], 50.9 µM (inactive) in assay [2], 54.1 µM (inactive) in assay [3] and 29.4 µM (inactive) in assay [4].
Turning to `CC(=O)O[C@H]1CC[C@H]2[C@@H]3CCC4=C/C(=N/OCCN(C)C)CC[C@]4(C)[C@H]3CC[C@]12C`, the GI50 is 12.8 µM (inactive) in assay [1], 20.2 µM (inactive) in assay [2], 3.65 µM (inactive) in assay [3] and 5.81 µM (inactive) in assay [4].
As for `CCOC(=O)Cn1nnc2cc(Nc3c(C)[n+]([O-])c4cc(F)c(OCC)cc4[n+]3[O-])ccc21`, the results for the GI50 in assay [2] and in assay [4] were 27.1 µM (inactive) and > 100 µM (inactive), respectively.
In the case of `Cn1c(CO)ccc1-c1ccc(-c2ccc(CO)[se]2)[se]1`, the results for the GI50 in assay [1], in assay [2] and in assay [4] were 11.1 µM (inactive), 21.2 µM (inactive) and 11.9 µM (inactive), respectively.
As to `CC(C)CC(C(N)=O)C(=O)NC(Cc1ccccc1)NC(=O)CNC(=O)C(C)NC(=O)C(N)Cc1ccc(O)cc1` (configuration not stated), the GI50 in assay [1], in assay [2], in assay [3] and in assay [4] was > 100 µM (inactive) each time.
As to `O=S(=O)(Cc1nc2ccccc2s1)c1nc2ccccc2s1`, the GI50 in assay [1] is 16.5 µM (inactive); in assay [2] it was 17.1 µM (inactive); in assay [3] it was 15.5 µM (inactive); in assay [4], 21.3 µM (inactive).
As for `C=C1C(=O)O[C@@]23C1CC[C@@H](C)C2CC[C@@]1(C)OC31` (some centres not stated), the GI50 is 7.71 µM (inactive) in assay [1], 5.09 µM (inactive) in assay [3] and 4.03 µM (inactive) in assay [4].
Take `Cc1cc(N(CCC#N)CCC#N)ccc1C(/N=N/c1ccc(Cl)cc1)=N\NC(=O)c1ccccc1`: the GI50 in assay [1] is 25.6 µM (inactive); in assay [2], 34.6 µM (inactive); in assay [3], 5.21 µM (inactive); in assay [4], 24.5 µM (inactive).
As for `CC(=O)OC(C)(C)CCC(=O)[C@](C)(O)[C@H]1[C@H](O)C[C@@]2(C)[C@@H]3CC=C4C(C)=C(OC5OC(CO)C(O)C(O)C5O)C(=O)C[C@@H]4[C@]3(C)C(=O)C[C@]12C` (some centres not stated), the GI50 in assay [1], in assay [2], in assay [3] and in assay [4] was > 100 µM (inactive) throughout.
Regarding `CC(=O)c1ccc(NCN2C(=O)c3ccccc3C2=O)cc1`, the GI50 in assay [1], in assay [2], in assay [3] and in assay [4] was > 100 µM (inactive) in each case.
Turning to `CC(=O)/C=C/C1=C(C)CCCC1(C)CC(C)C` (configuration not stated), the values for the GI50 in assay [2], in assay [3] and in assay [4] were 70.8 µM (inactive), 28.9 µM (inactive) and 15.3 µM (inactive), respectively.
As to `COc1ccc2ccccc2c1/C=C/C(=O)c1ccccc1`, the GI50 in assay [1] was 2.96 µM (inactive); in assay [2] it was 2.66 µM (inactive); in assay [3] it was 2.94 µM (inactive); in assay [4], 2.43 µM (inactive).
For the compound `CCCCC[C@H]1CCCCCCCCCC(=O)OC2C(O[C@@H]3OC(C)[C@H](OC(=O)[C@@H](C)CC)C(O[C@@H]4OC(C)[C@H](O)C(O)[C@@H]4O)[C@@H]3OC(=O)[C@H](C)CC)[C@H](OC3C(O)[C@@H](O)C(C)O[C@H]3O1)OC(CO)[C@H]2O` (some centres not stated), the GI50 in assay [2] was 16.8 µM (inactive); in assay [3], 17.4 µM (inactive); in assay [4] it was 17 µM (inactive).
For the compound `C=C1C(=O)O[C@H]2C1C[C@H](O)[C@@]1(C)OC1CC[C@@]1(C)O[C@H]21` (some centres not stated), the figures for the GI50 in assay [1] and in assay [4] were 13.8 µM (inactive) and 19.3 µM (inactive), respectively.
Consider `N#C/C(=C\c1cc(F)cc(F)c1)c1ccccn1`, for which the GI50 in assay [1] was 30.1 µM (inactive); in assay [3] it was 19.7 µM (inactive).
In the same order, the values of `NS(=O)(=O)c1ccc(-n2c(-c3cccs3)nc3ccc(I)cc3c2=O)cc1` are 16.3 µM (inactive) and 33.3 µM (inactive).
On to `COc1ccc(-c2oc3cc(OC(C)=O)cc(OC(C)=O)c3c(=O)c2OC)cc1`, for which the GI50 is 22 µM (inactive) in assay [2], 12.7 µM (inactive) in assay [3] and 19.7 µM (inactive) in assay [4].
On to `COc1cc2ccccc2c2cc([N+](=O)[O-])oc12`, for which the GI50 is 1.64 µM (inactive) in assay [1], 0.655 µM (active) in assay [2], 0.216 µM (active) in assay [3] and 5.36 µM (inactive) in assay [4].
`COC(=O)C1(NC(=O)C(Cc2ccccc2)NC(=O)C(NC(=O)C(CCCCNC(=O)OC(C)(C)C)NC(=O)C(Cc2c[nH]c3ccccc23)NC(=O)C(Cc2ccccc2)NC(=O)OCc2ccccc2)C(C)OC(C)(C)C)CCCC1` (configuration not stated) (Cbz-FWK(Boc)T(tBu)F[Ac5c]-OMe; configuration not given here): the GI50 in assay [2] is 25.9 µM (inactive); in assay [3] it was > 100 µM (inactive); in assay [4], 24.6 µM (inactive).
As to `Cc1c2oc3c(C)ccc(C(=O)NC4C(=O)NC(Cc5ccc(O)cc5)C(=O)N5CCCC5C(=O)N(C)CC(=O)N(C)C(C(C)C)C(=O)OC4C)c3nc-2c(C(=O)NC2C(=O)NC(Cc3ccc(O)cc3)C(=O)N3CCCC3C(=O)N(C)CC(=O)N(C)C(C(C)C)C(=O)OC2C)c(N)c1=O` (configuration not stated) (I: TYP[Sar][NMeV] / II: TYP[Sar][NMeV]; ester I:1-I:C, II:1-II:C; linker I:N-II:N via Actinocin(9to1); configuration not given here), the GI50 in assay [2] was 15.6 µM (inactive); in assay [3] it was 0.535 µM (active); in assay [4], 1.36 µM (inactive).
